These results are taken from patent publication US12036243B2, “BCMA CAR-T cells with enhanced activities” (Allogene Therapeutics, Inc., priority 2020, dated 2024).

Data set [1] deals with BCMA CAR T cells, with or without the CACCR. Nature of the data set: Rituximab-mediated CAR T cell depletion in vivo (MM.1S-Luc-GFP-bearing mice). Also noted: species or system NSG mice. The procedure: Next, we tested the effect of rituximab on decreasing BCMA CAR T cells, with or without the CACCR, in vivo. […] Rituximab (10 mg/kg) or PBS vehicle control was dosed intraperitoneally starting on the day of CAR T cell dosing and then daily for 4 additional days (n=9 or 10 per group).

The subject of data set [2] is BCMA CAR T cells with or without the CACCR. Nature of the data set: Rituximab complement-dependent cytotoxicity assay. The class given is cell-based. The settings on record: both types of BCMA CAR T cells. The text has this: (§1) To minimize any potential safety concerns in clinical development, the BCMA CAR construct was designed to incorporate two rituximab mimotopes, which would sensitize the BCMA CAR T cells to rituximab-mediated depletion. We next tested the effects of rituximab on the BCMA CAR T cells with or without the CACCR.

Data set [3] has the same test system. Nature of the data set: Rituximab NK cell-mediated antibody-dependent cellular cytotoxicity assay. The format is cell-based. The settings on record: both types of BCMA CAR T cells.
Text: as §1

For data set [4] the test system is unchanged.
Description: We tested in an in vitro cell killing assay the effect of 150 nM dasatinib on the activities of the BCMA CAR T cells with or without the CACCR.

As to rituximab, the “tumor burden following rituximab-mediated CAR T cell depletion” value in data set [1] (rituximab 10 mg/kg i.p.) is “compromised anti-tumor efficacy”. For the same compound, in data set [1] (rituximab 10 mg/kg i.p. daily for 5 days, 7 days post-CAR T cell dosing), the “CAR T cell counts in peripheral blood” value was “efficient and complete elimination of both CAR T cells”. The “viable CAR T cells” value in data set [2] and in data set [3] was “significantly decreased viable CAR T cells in a dose-responsive manner” each time.

Turning to `Cc1nc(Nc2ncc(C(=O)Nc3c(C)cccc3Cl)s2)cc(N2CCN(CCO)CC2)n1` [dasatinib], in data set [4], the “cytotoxicity of BCMA CAR T cells” value is on record as “abolished the cytotoxicity”.
